Consider 30 molecules from US9067922B2, “Chemical compounds” (Pfizer Limited, priority 2013, dated 2015).

The experiment concerns the target URAT-1 transporter (Homo sapiens (Human), UniProt Q96S37). Briefly: URAT-1 inhibitor activity: [14C]-uric acid uptake in CHO-URAT1(L)GFP#8 (CHO#8) cells, scintillation proximity. The experiment is classed as cell-based. An outline of the steps:
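CHO cells stably expressing human URAT1 long isoform–eGFP fusion, pre-incubated 1 h in chloride-containing buffer pH 7.4, then given 30 nM [14C]-uric acid with compound (0–10 μM, 0.25% DMSO) in chloride-free gluconate buffer pH 7.4. Uptake measured by scintillation proximity on Cytostar plates.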
In general terms: SPA uses beads or plates that emit light when radiolabelled molecules are held near them.

Where [1] appears, read: inhibition of [14C]-uric acid (30 nM) uptake into CHO#8 cells, compound 0 to 10 μM, 4 parameter logistic fit.

Broadly, the IC50 is the concentration that inhibits the measured activity by half. A higher IC50 goes with lower potency.

Where two headings read alike, the source gives them in different places.

URAT-1 transporter, sequence (Q96S37 other isoform, or with tags, fused parts or gaps): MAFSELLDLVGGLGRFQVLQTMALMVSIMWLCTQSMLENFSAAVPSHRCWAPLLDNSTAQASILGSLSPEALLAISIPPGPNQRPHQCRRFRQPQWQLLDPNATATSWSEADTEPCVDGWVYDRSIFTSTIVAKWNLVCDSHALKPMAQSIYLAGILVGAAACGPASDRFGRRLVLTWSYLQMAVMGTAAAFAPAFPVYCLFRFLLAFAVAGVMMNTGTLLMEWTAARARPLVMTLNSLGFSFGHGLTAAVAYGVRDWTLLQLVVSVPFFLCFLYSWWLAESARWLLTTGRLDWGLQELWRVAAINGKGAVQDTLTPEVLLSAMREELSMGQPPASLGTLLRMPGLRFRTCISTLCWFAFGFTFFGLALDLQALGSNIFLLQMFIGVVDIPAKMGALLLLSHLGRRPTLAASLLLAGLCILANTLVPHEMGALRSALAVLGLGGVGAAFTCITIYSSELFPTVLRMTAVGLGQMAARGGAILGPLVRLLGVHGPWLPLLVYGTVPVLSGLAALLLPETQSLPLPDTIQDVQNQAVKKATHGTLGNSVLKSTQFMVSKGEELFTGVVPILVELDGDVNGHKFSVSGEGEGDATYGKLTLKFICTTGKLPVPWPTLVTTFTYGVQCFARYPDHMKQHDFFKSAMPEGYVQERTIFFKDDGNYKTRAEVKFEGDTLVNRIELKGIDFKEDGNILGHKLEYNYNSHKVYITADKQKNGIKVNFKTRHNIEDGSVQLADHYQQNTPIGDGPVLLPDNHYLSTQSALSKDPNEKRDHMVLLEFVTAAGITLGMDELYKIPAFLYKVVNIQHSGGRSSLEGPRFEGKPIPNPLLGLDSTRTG

Under setting [1], `COc1ccncc1Oc1ccc(S(=O)(=O)Nc2ccc(F)cn2)cc1C#N` [Example 190, 3-cyano-N-(5-fluoropyridin-2-yl)-4-[(4-methoxypyridin-3-yl)oxy]benzenesulfonamide] returned a 50% inhibitory concentration (IC50) greater than 10000 nM.

The molecule `Cc1ccc(Oc2ccc(S(=O)(=O)Nc3ccc(F)cn3)cc2C#N)cc1` [Example 191, 3-cyano-N-(5-fluoropyridin-2-yl)-4-(4-methylphenoxy)benzenesulfonamide] returned a concentration for half-maximal inhibition (IC50) under setting [1] of 1990 nM.

Turning to `N#Cc1cc(S(=O)(=O)Nc2ccc(F)cn2)ccc1Oc1cccnc1` [Example 194, 3-cyano-N-(5-fluoropyridin-2-yl)-4-(pyridin-3-yloxy)benzenesulfonamide], the half-inhibitory concentration (IC50) under setting [1] was greater than 10000 nM.

`N#Cc1cc(S(=O)(=O)Nc2ccc(F)cn2)ccc1Oc1ccc(C(F)(F)F)nc1` [Example 196, 3-cyano-N-(5-fluoropyridin-2-yl)-4-{[6-(trifluoromethyl)pyridin-3-yl]oxy}benzenesulfonamide] registered an IC50 under setting [1] greater than 10000 nM.

In the case of `COc1ccc(C#N)cc1Oc1ccc(S(=O)(=O)Nc2ccc(F)cn2)cc1C#N` [Example 197, 3-cyano-4-(5-cyano-2-methoxyphenoxy)-N-(5-fluoropyridin-2-yl)benzenesulfonamide], the IC50 under setting [1] was greater than 10000 nM.

Under setting [1], `Cc1ccncc1Oc1ccc(S(=O)(=O)Nc2ccc(F)cn2)cc1C#N` [Example 198, 3-cyano-N-(5-fluoropyridin-2-yl)-4-[(4-methylpyridin-3-yl)oxy]benzenesulfonamide] showed an IC50 of 792 nM.

`COc1ccc(Oc2ccc(S(=O)(=O)Nc3ccc(F)cn3)cc2C#N)cn1` [Example 199, 3-cyano-N-(5-fluoropyridin-2-yl)-4-[(6-methoxypyridin-3-yl)oxy]benzenesulfonamide] came in with a half-maximal inhibitory concentration (IC50) under setting [1] of 129 nM.

Turning to `COc1ccc(C)c(Oc2ccc(S(=O)(=O)Nc3ccc(F)cn3)cc2C#N)c1` [Example 200, 3-cyano-N-(5-fluoropyridin-2-yl)-4-(5-methoxy-2-methylphenoxy)benzenesulfonamide], the IC50 under setting [1] stood at 53 nM.

The molecule `COc1ccc(Oc2ccc(S(=O)(=O)Nc3ccc(F)cn3)cc2C#N)c(C)c1` [Example 201, 3-cyano-N-(5-fluoropyridin-2-yl)-4-(4-methoxy-2-methylphenoxy)benzenesulfonamide] registered an IC50 under setting [1] of 74 nM.

`N#Cc1cc(S(=O)(=O)Nc2ccc(F)cn2)ccc1Oc1cncc(Cl)c1` [Example 202, 4-[(5-chloropyridin-3-yl)oxy]-3-cyano-N-(5-fluoropyridin-2-yl)benzenesulfonamide] came in with a concentration for half-maximal inhibition (IC50) under setting [1] of 37 nM.

Consider `N#Cc1cc(S(=O)(=O)Nc2ccc(F)cn2)ccc1Oc1ccc(C#N)c(C2CC2)c1` [Example 203, 3-cyano-4-(4-cyano-3-cyclopropylphenoxy)-N-(5-fluoropyridin-2-yl)benzenesulfonamide], for which, under setting [1], the concentration for half-maximal inhibition (IC50) was determined as 37 nM.

Turning to `COc1cc(C#N)ccc1Oc1ccc(S(=O)(=O)Nc2ccc(F)cn2)cc1C#N` [Example 204, 3-cyano-4-(4-cyano-2-methoxyphenoxy)-N-(5-fluoropyridin-2-yl)benzenesulfonamide], under setting [1], the IC50 was greater than 10000 nM.

Under setting [1], `N#Cc1ccc(Oc2ccc(S(=O)(=O)Nc3ccc(F)cn3)cc2C#N)cn1` [Example 205, 3-cyano-4-[(6-cyanopyridin-3-yl)oxy]-N-(5-fluoropyridin-2-yl)benzenesulfonamide] yielded an IC50 of 2630 nM.

Under setting [1], `N#Cc1cncc(Oc2ccc(S(=O)(=O)Nc3ccc(F)cn3)cc2C#N)c1` [Example 206, 3-cyano-4-[(5-cyanopyridin-3-yl)oxy]-N-(5-fluoropyridin-2-yl)benzenesulfonamide] came in with an IC50 of 1080 nM.

Molecule `CC(C)Oc1ccccc1Oc1ccc(S(=O)(=O)Nc2ccc(F)cn2)cc1C#N` [Example 207, 3-cyano-N-(5-fluoropyridin-2-yl)-4-[2-(propan-2-yloxy)phenoxy]benzenesulfonamide] displayed an IC50 under setting [1] greater than 10000 nM.

On to `COc1cccc(Oc2ccc(S(=O)(=O)Nc3ccc(F)cn3)cc2C#N)c1` [Example 208, 3-cyano-N-(5-fluoropyridin-2-yl)-4-(3-methoxyphenoxy)benzenesulfonamide], for which the IC50 under setting [1] is greater than 10000 nM.

For the molecule `Cc1ccnc(NS(=O)(=O)c2ccc(Oc3cccc(Cl)c3C#N)cc2)c1` [Example 216, 4-(3-chloro-2-cyanophenoxy)-N-(4-methylpyridin-2-yl)benzenesulfonamide], the IC50 under setting [1] was greater than 10000 nM.

Regarding `N#Cc1c(Cl)cccc1Oc1ccc(S(=O)(=O)Nc2ccncc2)cc1` [Example 217, 4-(3-chloro-2-cyanophenoxy)-N-(pyridin-4-yl)benzenesulfonamide], under setting [1], the IC50 is greater than 10000 nM.

`N#Cc1c(Cl)cccc1Oc1ccc(S(=O)(=O)Nc2ccccn2)cc1` [Example 218, 4-(3-chloro-2-cyanophenoxy)-N-(pyridin-2-yl)benzenesulfonamide]: the IC50 under setting [1] is greater than 10000 nM.

On to `N#Cc1c(Cl)cccc1Oc1ccc(S(=O)(=O)Nc2cccnc2)cc1` [Example 219, 4-(3-chloro-2-cyanophenoxy)-N-(pyridin-3-yl)benzenesulfonamide], for which the IC50 under setting [1] was greater than 10000 nM.

In the case of `Cc1ccnc(NS(=O)(=O)c2ccc(Oc3cccc(Cl)c3C#N)cc2)n1` [Example 220, 4-(3-chloro-2-cyanophenoxy)-N-(4-methylpyrimidin-2-yl)benzenesulfonamide], the IC50 under setting [1] is greater than 10000 nM.

For `Cc1ccc(NS(=O)(=O)c2ccc(Oc3cccc(Cl)c3C#N)cc2)nc1` [Example 221, 4-(3-chloro-2-cyanophenoxy)-N-(5-methylpyridin-2-yl)benzenesulfonamide], under setting [1], the IC50 is greater than 10000 nM.

The molecule `N#Cc1c(Cl)cccc1Oc1ccc(S(=O)(=O)Nc2ncccn2)cc1` [Example 222, 4-(3-chloro-2-cyanophenoxy)-N-(pyrimidin-2-yl)benzenesulfonamide] had an IC50 under setting [1] greater than 10000 nM.

Molecule `N#Cc1c(Cl)cccc1Oc1ccc(S(=O)(=O)Nc2cnccn2)cc1` [Example 223, 4-(3-chloro-2-cyanophenoxy)-N-(pyrazin-2-yl)benzenesulfonamide] had an IC50 under setting [1] greater than 10000 nM.

Molecule `N#Cc1cc(S(=O)(=O)Nc2ccc(F)cn2)ccc1Oc1ccc(N)cc1` [Example 224, 4-(4-aminophenoxy)-3-cyano-N-(5-fluoropyridin-2-yl)benzenesulfonamide] showed an IC50 under setting [1] greater than 10000 nM.

`N#Cc1cc(Oc2cc(F)c(S(=O)(=O)Nc3ncccn3)cc2Cl)ccc1F` [Example 225, 5-chloro-4-(3-cyano-4-fluorophenoxy)-2-fluoro-N-(pyrimidin-2-yl)benzenesulfonamide] showed an IC50 under setting [1] of 2330 nM.

Under setting [1], `N#Cc1cc(S(=O)(=O)Nc2ccc(F)cn2)ccc1Oc1cc(Cl)c(C#N)c(Cl)c1` [Example 241, 3-cyano-4-(3,5-dichloro-4-cyanophenoxy)-N-(5-fluoropyridin-2-yl)benzenesulfonamide] had an IC50 of 3 nM.

Molecule `N#Cc1cc(S(=O)(=O)Nc2ccc(F)cn2)ccc1Oc1ccc(CO)c(Cl)c1` [Example 247, 4-[3-chloro-4-(hydroxymethyl)phenoxy]-3-cyano-N-(5-fluoropyridin-2-yl)benzenesulfonamide] registered an IC50 under setting [1] of 1 nM.

For the molecule `N#Cc1ccc(Oc2c(F)cc(S(=O)(=O)Nc3ccc(F)cn3)cc2C#N)cc1Cl` [Example 248, 4-(3-chloro-4-cyanophenoxy)-3-cyano-5-fluoro-N-(5-fluoropyridin-2-yl)benzenesulfonamide], the IC50 under setting [1] was 324 nM.

In the case of `[2H]c1c(Oc2ccc(S(=O)(=O)Nc3ccc(F)cn3)c(F)c2)c([2H])c(C([2H])([2H])[2H])c(C#N)c1C([2H])([2H])[2H]` [Example 249], the IC50 stood at 21 nM.
